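Exposure lasted 48 hours, with cells grown in 96-well plates and compounds tested at five concentrations. The concentration for 50% growth inhibition is given as GI50. TGI is the concentration that stops growth completely.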
Columns and labels:
Assay in all cases: NCI-60 cell line screen, 48 h
SF-539 CNS = system: SF-539 CNS
UACC-62 melanoma = system: UACC-62 melanoma
EKVX NSCLC = system: EKVX NSCLC
TK-10 renal = system: TK-10 renal
MDA-MB-435 = system: MDA-MB-435
OVCAR-5 ovarian = system: OVCAR-5 ovarian
ACHN renal = system: ACHN renal
SNB-75 CNS = system: SNB-75 CNS
OVCAR-4 ovarian = system: OVCAR-4 ovarian
OVCAR-3 ovarian = system: OVCAR-3 ovarian
LOX IMVI melanoma = system: LOX IMVI melanoma
T-47D breast = system: T-47D breast
SN12C renal = system: SN12C renal
A498 renal = system: A498 renal
NCI-H460 lung = system: NCI-H460 lung
DU-145 prostate = system: DU-145 prostate
CAKI-1 renal = system: CAKI-1 renal
NCI-H226 lung = system: NCI-H226 lung
A549 NSCLC = system: A549 NSCLC
KM12 colon = system: KM12 colon
NCI-H23 lung = system: NCI-H23 lung
HCT-15 colon = system: HCT-15 colon
RXF 393 renal = system: RXF 393 renal
IGROV1 ovarian = system: IGROV1 ovarian
SK-OV-3 ovarian = system: SK-OV-3 ovarian
HT29 colon = system: HT29 colon
MDA-MB-231 breast = system: MDA-MB-231 breast
SR leukemia = system: SR leukemia
BT-549 breast = system: BT-549 breast
UACC-257 melanoma = system: UACC-257 melanoma
SW-620 colon = system: SW-620 colon
CCRF-CEM leukemia = system: CCRF-CEM leukemia
OVCAR-8 ovarian = system: OVCAR-8 ovarian
HL-60(TB) leukemia = system: HL-60(TB) leukemia
SF-268 CNS = system: SF-268 CNS
MCF7 breast = system: MCF7 breast
HOP-92 NSCLC = system: HOP-92 NSCLC
UO-31 renal = system: UO-31 renal
SK-MEL-28 melanoma = system: SK-MEL-28 melanoma
K-562 leukemia = system: K-562 leukemia
COLO 205 colon = system: COLO 205 colon
NCI/ADR-RES ovarian = system: NCI/ADR-RES ovarian
SK-MEL-2 melanoma = system: SK-MEL-2 melanoma
HCC-2998 colon = system: HCC-2998 colon
SK-MEL-5 melanoma = system: SK-MEL-5 melanoma
SNB-19 CNS = system: SNB-19 CNS
MOLT-4 leukemia = system: MOLT-4 leukemia
U251 CNS = system: U251 CNS
MALME-3M melanoma = system: MALME-3M melanoma
HS 578T breast = system: HS 578T breast
HCT-116 colon = system: HCT-116 colon
SF-295 CNS = system: SF-295 CNS
NCI-H522 lung = system: NCI-H522 lung
M14 melanoma = system: M14 melanoma
786-0 renal = system: 786-0 renal
HOP-62 NSCLC = system: HOP-62 NSCLC
PC-3 prostate = system: PC-3 prostate

COc1cc2c(cc1OCCCOc1ccc(-c3cc4ccccc4c4ccccc34)cc1)N=C[C@@H]1CCCN1C2=O
GI50 (SF-539 CNS): 1.58 µM | TGI (SF-539 CNS): 2.92 µM | GI50 (UACC-62 melanoma): 0.632 µM | TGI (UACC-62 melanoma): 2.09 µM | GI50 (EKVX NSCLC): 1.1 µM | TGI (EKVX NSCLC): 2.3 µM | GI50 (TK-10 renal): 0.646 µM | TGI (TK-10 renal): 1.79 µM | GI50 (MDA-MB-435): 0.343 µM | TGI (MDA-MB-435): 1.31 µM | GI50 (OVCAR-5 ovarian): 0.487 µM | TGI (OVCAR-5 ovarian): 0.995 µM | GI50 (ACHN renal): 1.07 µM | TGI (ACHN renal): 2.3 µM | GI50 (SNB-75 CNS): 0.261 µM | TGI (SNB-75 CNS): 1.41 µM | GI50 (OVCAR-4 ovarian): 0.815 µM | TGI (OVCAR-4 ovarian): 2.21 µM | GI50 (OVCAR-3 ovarian): 0.252 µM | TGI (OVCAR-3 ovarian): 0.786 µM | GI50 (LOX IMVI melanoma): 1.02 µM | TGI (LOX IMVI melanoma): 2.19 µM | GI50 (T-47D breast): 0.0887 µM | TGI (T-47D breast): 0.598 µM | GI50 (SN12C renal): 0.518 µM | TGI (SN12C renal): 1.84 µM | GI50 (A498 renal): 0.894 µM | TGI (A498 renal): 2.16 µM | GI50 (NCI-H460 lung): 1.04 µM | TGI (NCI-H460 lung): 2.21 µM | GI50 (DU-145 prostate): 0.385 µM | TGI (DU-145 prostate): 1.42 µM | GI50 (CAKI-1 renal): 0.535 µM | TGI (CAKI-1 renal): 1.65 µM | GI50 (NCI-H226 lung): 1.28 µM | TGI (NCI-H226 lung): 2.73 µM | GI50 (A549 NSCLC): 0.724 µM | TGI (A549 NSCLC): 2.01 µM | GI50 (KM12 colon): 0.787 µM | TGI (KM12 colon): 2.06 µM | GI50 (NCI-H23 lung): 1.41 µM | TGI (NCI-H23 lung): 2.74 µM | GI50 (HCT-15 colon): 0.896 µM | TGI (HCT-15 colon): 2.26 µM | GI50 (RXF 393 renal): 0.24 µM | TGI (RXF 393 renal): 0.624 µM | GI50 (IGROV1 ovarian): 0.122 µM | TGI (IGROV1 ovarian): 0.288 µM | GI50 (SK-OV-3 ovarian): 1.6 µM | TGI (SK-OV-3 ovarian): 3.26 µM | GI50 (HT29 colon): 0.899 µM | TGI (HT29 colon): 2.11 µM | GI50 (MDA-MB-231 breast): 0.291 µM | TGI (MDA-MB-231 breast): 1.27 µM | GI50 (SR leukemia): 0.222 µM | TGI (SR leukemia): 0.717 µM | GI50 (BT-549 breast): 0.278 µM | TGI (BT-549 breast): 2.05 µM | GI50 (UACC-257 melanoma): 1.57 µM | TGI (UACC-257 melanoma): 3.1 µM | GI50 (SW-620 colon): 0.513 µM | TGI (SW-620 colon): 1.86 µM | GI50 (CCRF-CEM leukemia): 0.237 µM | GI50 (OVCAR-8 ovarian): 0.425 µM | TGI (OVCAR-8 ovarian): 1.98 µM | GI50 (HL-60(TB) leukemia): 0.171 µM | TGI (HL-60(TB) leukemia): 0.393 µM | GI50 (SF-268 CNS): 0.86 µM | TGI (SF-268 CNS): 2.08 µM | GI50 (MCF7 breast): 0.172 µM | TGI (MCF7 breast): 0.971 µM | GI50 (HOP-92 NSCLC): 0.334 µM | TGI (HOP-92 NSCLC): 1.53 µM | GI50 (UO-31 renal): 0.169 µM | TGI (UO-31 renal): 0.593 µM | GI50 (SK-MEL-28 melanoma): 0.555 µM | TGI (SK-MEL-28 melanoma): 1.38 µM | TGI (K-562 leukemia): > 100 µM | GI50 (COLO 205 colon): 1.19 µM | TGI (COLO 205 colon): 2.44 µM | GI50 (NCI/ADR-RES ovarian): 0.716 µM | TGI (NCI/ADR-RES ovarian): 1.98 µM | GI50 (SK-MEL-2 melanoma): 0.0467 µM | TGI (SK-MEL-2 melanoma): 0.521 µM | GI50 (HCC-2998 colon): 1.21 µM | TGI (HCC-2998 colon): 2.45 µM | GI50 (SK-MEL-5 melanoma): 1.24 µM | TGI (SK-MEL-5 melanoma): 2.49 µM | GI50 (SNB-19 CNS): 1.16 µM | TGI (SNB-19 CNS): 2.37 µM | GI50 (MOLT-4 leukemia): 0.186 µM | TGI (MOLT-4 leukemia): 0.432 µM | GI50 (U251 CNS): 0.91 µM | TGI (U251 CNS): 2.11 µM | GI50 (MALME-3M melanoma): 1.4 µM | TGI (MALME-3M melanoma): 2.74 µM | GI50 (HS 578T breast): 0.645 µM | TGI (HS 578T breast): 3.11 µM

CC[C@]1(Cc2ccc(OC)c(OC)c2)C=[N+]([O-])O[C@H](OC2CCCC2(c2ccccc2)c2ccccc2)[C@@H]1OC(=O)C(C)(C)C (stereo partly specified)
TGI (UACC-62 melanoma): 17.4 µM | TGI (EKVX NSCLC): 22.3 µM | TGI (TK-10 renal): > 25.4 µM | TGI (HCT-116 colon): 4.58 µM | TGI (MDA-MB-435): 4.12 µM | TGI (SF-295 CNS): 14.8 µM | TGI (OVCAR-5 ovarian): > 39.9 µM | TGI (ACHN renal): 5.25 µM | TGI (SNB-75 CNS): 13.4 µM | TGI (OVCAR-4 ovarian): 14.1 µM | TGI (OVCAR-3 ovarian): 2.92 µM | TGI (LOX IMVI melanoma): 4.18 µM | TGI (T-47D breast): 7.04 µM | TGI (SN12C renal): > 22.1 µM | TGI (NCI-H460 lung): 6.92 µM | TGI (DU-145 prostate): 4.45 µM | TGI (CAKI-1 renal): > 100 µM | TGI (NCI-H226 lung): 12.5 µM | TGI (A549 NSCLC): > 36.6 µM | TGI (KM12 colon): 5.84 µM | TGI (NCI-H522 lung): 4.99 µM | TGI (NCI-H23 lung): 14.8 µM | TGI (HCT-15 colon): 8.97 µM | TGI (M14 melanoma): > 40.8 µM | TGI (RXF 393 renal): 3.53 µM | TGI (786-0 renal): 5.31 µM | TGI (IGROV1 ovarian): 9 µM | TGI (SK-OV-3 ovarian): > 86.1 µM | TGI (HT29 colon): 4.49 µM | TGI (HOP-62 NSCLC): 6.93 µM | TGI (MDA-MB-231 breast): > 33 µM | TGI (SR leukemia): > 100 µM | TGI (BT-549 breast): > 44.5 µM | TGI (UACC-257 melanoma): 18.7 µM | TGI (SW-620 colon): > 100 µM | TGI (CCRF-CEM leukemia): > 40.3 µM | TGI (HL-60(TB) leukemia): 8.1 µM | TGI (SF-268 CNS): > 32.5 µM | TGI (MCF7 breast): > 23.3 µM | TGI (HOP-92 NSCLC): 18.2 µM | TGI (UO-31 renal): 3.97 µM | TGI (SK-MEL-28 melanoma): 4.22 µM | TGI (K-562 leukemia): > 100 µM | TGI (COLO 205 colon): 7.78 µM | TGI (NCI/ADR-RES ovarian): 5.58 µM | TGI (SK-MEL-2 melanoma): 7.66 µM | TGI (HCC-2998 colon): 3.71 µM | TGI (SK-MEL-5 melanoma): 4.09 µM | TGI (SNB-19 CNS): 30.3 µM | TGI (PC-3 prostate): 14.8 µM | TGI (MOLT-4 leukemia): > 100 µM | TGI (U251 CNS): > 55.6 µM | TGI (HS 578T breast): 28.7 µM

Reference: PubChem BioAssay (NCI)
